Results: ChEMBL document CHEMBL3045599, “SYNTHESIS, ANOREXIGENIC ACTIVITY AND QSAR OF SUBSTITUTED ARYLOXYPROPANOLAMINES” (Med Chem Res, 2004)
Activity calls are given as the source filed them. The rule behind the calls is not given here.

System: Mus musculus
Assay: Effect on CNS in Mus musculus Swiss (mouse) assessed as reversal of resperine-induced sedation at 75 umol/kg, ip
Format: ADME, organism-based, Central nervous system
Details: in vivo

Row | Structure (SMILES) | Activity
1 | CN(CCC(Oc1ccc(C(F)(F)F)cc1)c1ccccc1)CC(O)COc1ccc2ccccc2c1 (stereo not drawn) | Non-toxic
2 | CCC(=O)c1ccc(OCC(O)CN(C)CCC(Oc2ccc(C(F)(F)F)cc2)c2ccccc2)cc1 (stereo not drawn) | Non-toxic
3 | CN(CCC(Oc1ccc(C(F)(F)F)cc1)c1ccccc1)CC(O)COc1ccc(Cl)cc1 (stereo not drawn) | Non-toxic
4 | COc1ccc(OCC(O)CN(C)CCC(Oc2ccc(C(F)(F)F)cc2)c2ccccc2)cc1 (stereo not drawn) | Non-toxic
5 | COc1ccccc1OCC(O)CN(C)CCC(Oc1ccc(C(F)(F)F)cc1)c1ccccc1 (stereo not drawn) | Non-toxic
6 | CC(=O)c1ccc(OCC(O)CN(C)CCC(Oc2ccc(C(F)(F)F)cc2)c2ccccc2)cc1 (stereo not drawn) | Non-toxic
7 | CC(=O)Nc1ccc(OCC(O)CN(C)CCC(Oc2ccc(C(F)(F)F)cc2)c2ccccc2)cc1 (stereo not drawn) | Non-toxic
8 | CCNc1ccc(OCC(O)CN(C)CCC(Oc2ccc(C(F)(F)F)cc2)c2ccccc2)cc1 (stereo not drawn) | Non-toxic
9 | CN(CCC(Oc1ccc(C(F)(F)F)cc1)c1ccccc1)CC(O)COc1ccc(C(F)(F)F)cc1 (stereo not drawn) | Non-toxic
10 | Cc1ccccc1OCC(O)CN(C)CCC(Oc1ccc(C(F)(F)F)cc1)c1ccccc1 (stereo not drawn) | Non-toxic
11 | CNCCC(Oc1ccc(C(F)(F)F)cc1)c1ccccc1 (stereo not drawn) [FLUOXETINE] | 100%
12 | CN(CCC(Oc1ccc(C(F)(F)F)cc1)c1ccccc1)CC(O)COc1ccc(C#N)cc1 (stereo not drawn) | Non-toxic
13 | CN(CCC(Oc1ccc(C(F)(F)F)cc1)c1ccccc1)CC(O)COc1ccccc1 (stereo not drawn) | Non-toxic
14 | CN(CCC(Oc1ccc(C(F)(F)F)cc1)c1ccccc1)CC(O)COc1cccc(C(F)(F)F)c1 (stereo not drawn) | Non-toxic
15 | CN(CCC(Oc1ccc(C(F)(F)F)cc1)c1ccccc1)CC(O)COc1ccc(Br)cc1 (stereo not drawn) | Non-toxic
16 | CN(CCC(Oc1ccc(C(F)(F)F)cc1)c1ccccc1)CC(O)COc1ccc(C=O)cc1 (stereo not drawn) | Non-toxic

System: Mus musculus
Assay: Antidepressant activity in Mus musculus Swiss (mouse) at 75 umol/kg, ip
Format: functional, organism-based
Details: not given

Row | Structure (SMILES) | Activity
17 | CN(CCC(Oc1ccc(C(F)(F)F)cc1)c1ccccc1)CC(O)COc1ccc2ccccc2c1 (stereo not drawn) | inactive
18 | CCC(=O)c1ccc(OCC(O)CN(C)CCC(Oc2ccc(C(F)(F)F)cc2)c2ccccc2)cc1 (stereo not drawn) | inactive
19 | CN(CCC(Oc1ccc(C(F)(F)F)cc1)c1ccccc1)CC(O)COc1ccc(Cl)cc1 (stereo not drawn) | inactive
20 | COc1ccc(OCC(O)CN(C)CCC(Oc2ccc(C(F)(F)F)cc2)c2ccccc2)cc1 (stereo not drawn) | inactive
21 | COc1ccccc1OCC(O)CN(C)CCC(Oc1ccc(C(F)(F)F)cc1)c1ccccc1 (stereo not drawn) | inactive
22 | CC(=O)c1ccc(OCC(O)CN(C)CCC(Oc2ccc(C(F)(F)F)cc2)c2ccccc2)cc1 (stereo not drawn) | inactive
23 | CC(=O)Nc1ccc(OCC(O)CN(C)CCC(Oc2ccc(C(F)(F)F)cc2)c2ccccc2)cc1 (stereo not drawn) | inactive
24 | CCNc1ccc(OCC(O)CN(C)CCC(Oc2ccc(C(F)(F)F)cc2)c2ccccc2)cc1 (stereo not drawn) | inactive
25 | CN(CCC(Oc1ccc(C(F)(F)F)cc1)c1ccccc1)CC(O)COc1ccc(C(F)(F)F)cc1 (stereo not drawn) | inactive
26 | Cc1ccccc1OCC(O)CN(C)CCC(Oc1ccc(C(F)(F)F)cc1)c1ccccc1 (stereo not drawn) | inactive
27 | CN(CCC(Oc1ccc(C(F)(F)F)cc1)c1ccccc1)CC(O)COc1ccc(C#N)cc1 (stereo not drawn) | Active
28 | CN(CCC(Oc1ccc(C(F)(F)F)cc1)c1ccccc1)CC(O)COc1ccccc1 (stereo not drawn) | inactive
29 | CN(CCC(Oc1ccc(C(F)(F)F)cc1)c1ccccc1)CC(O)COc1cccc(C(F)(F)F)c1 (stereo not drawn) | inactive
30 | CN(CCC(Oc1ccc(C(F)(F)F)cc1)c1ccccc1)CC(O)COc1ccc(Br)cc1 (stereo not drawn) | inactive
31 | CN(CCC(Oc1ccc(C(F)(F)F)cc1)c1ccccc1)CC(O)COc1ccc(C=O)cc1 (stereo not drawn) | inactive

System: Mus musculus
Assay: Effect on CNS in Mus musculus Swiss (mouse) assessed as gross behavioural effects at 75 umol/kg, ip
Format: ADME, organism-based, Central nervous system
Details: in vivo

Row | Structure (SMILES) | Activity
32 | CN(CCC(Oc1ccc(C(F)(F)F)cc1)c1ccccc1)CC(O)COc1ccc2ccccc2c1 (stereo not drawn) | Non-toxic
33 | CCC(=O)c1ccc(OCC(O)CN(C)CCC(Oc2ccc(C(F)(F)F)cc2)c2ccccc2)cc1 (stereo not drawn) | Non-toxic
34 | CN(CCC(Oc1ccc(C(F)(F)F)cc1)c1ccccc1)CC(O)COc1ccc(Cl)cc1 (stereo not drawn) | Non-toxic
35 | COc1ccc(OCC(O)CN(C)CCC(Oc2ccc(C(F)(F)F)cc2)c2ccccc2)cc1 (stereo not drawn) | Non-toxic
36 | COc1ccccc1OCC(O)CN(C)CCC(Oc1ccc(C(F)(F)F)cc1)c1ccccc1 (stereo not drawn) | Non-toxic
37 | CC(=O)c1ccc(OCC(O)CN(C)CCC(Oc2ccc(C(F)(F)F)cc2)c2ccccc2)cc1 (stereo not drawn) | Non-toxic
38 | CC(=O)Nc1ccc(OCC(O)CN(C)CCC(Oc2ccc(C(F)(F)F)cc2)c2ccccc2)cc1 (stereo not drawn) | Non-toxic
39 | CCNc1ccc(OCC(O)CN(C)CCC(Oc2ccc(C(F)(F)F)cc2)c2ccccc2)cc1 (stereo not drawn) | Non-toxic
40 | CN(CCC(Oc1ccc(C(F)(F)F)cc1)c1ccccc1)CC(O)COc1ccc(C(F)(F)F)cc1 (stereo not drawn) | Non-toxic
41 | Cc1ccccc1OCC(O)CN(C)CCC(Oc1ccc(C(F)(F)F)cc1)c1ccccc1 (stereo not drawn) | Non-toxic
42 | CN(CCC(Oc1ccc(C(F)(F)F)cc1)c1ccccc1)CC(O)COc1ccc(C#N)cc1 (stereo not drawn) | Non-toxic
43 | CN(CCC(Oc1ccc(C(F)(F)F)cc1)c1ccccc1)CC(O)COc1ccccc1 (stereo not drawn) | Non-toxic
44 | CN(CCC(Oc1ccc(C(F)(F)F)cc1)c1ccccc1)CC(O)COc1cccc(C(F)(F)F)c1 (stereo not drawn) | Non-toxic
45 | CN(CCC(Oc1ccc(C(F)(F)F)cc1)c1ccccc1)CC(O)COc1ccc(Br)cc1 (stereo not drawn) | Non-toxic
46 | CN(CCC(Oc1ccc(C(F)(F)F)cc1)c1ccccc1)CC(O)COc1ccc(C=O)cc1 (stereo not drawn) | Non-toxic

System: Mus musculus
Assay: Anorexigenic activity in Mus musculus Swiss (mouse) at 75 umol/kg, ip measured for 15 min relative to control
Format: functional
Details: not given

Row | Structure (SMILES) | Activity [%]
47 | CN(CCC(Oc1ccc(C(F)(F)F)cc1)c1ccccc1)CC(O)COc1ccc2ccccc2c1 (stereo not drawn) | 40
48 | CCC(=O)c1ccc(OCC(O)CN(C)CCC(Oc2ccc(C(F)(F)F)cc2)c2ccccc2)cc1 (stereo not drawn) | 36
49 | CN(CCC(Oc1ccc(C(F)(F)F)cc1)c1ccccc1)CC(O)COc1ccc(Cl)cc1 (stereo not drawn) | 28
50 | COc1ccc(OCC(O)CN(C)CCC(Oc2ccc(C(F)(F)F)cc2)c2ccccc2)cc1 (stereo not drawn) | 52
51 | COc1ccccc1OCC(O)CN(C)CCC(Oc1ccc(C(F)(F)F)cc1)c1ccccc1 (stereo not drawn) | 56
52 | CC(=O)c1ccc(OCC(O)CN(C)CCC(Oc2ccc(C(F)(F)F)cc2)c2ccccc2)cc1 (stereo not drawn) | 32
53 | CC(=O)Nc1ccc(OCC(O)CN(C)CCC(Oc2ccc(C(F)(F)F)cc2)c2ccccc2)cc1 (stereo not drawn) | 60
54 | CCNc1ccc(OCC(O)CN(C)CCC(Oc2ccc(C(F)(F)F)cc2)c2ccccc2)cc1 (stereo not drawn) | 60
55 | CN(CCC(Oc1ccc(C(F)(F)F)cc1)c1ccccc1)CC(O)COc1ccc(C(F)(F)F)cc1 (stereo not drawn) | 32
56 | Cc1ccccc1OCC(O)CN(C)CCC(Oc1ccc(C(F)(F)F)cc1)c1ccccc1 (stereo not drawn) | 60
57 | CNCCC(Oc1ccc(C(F)(F)F)cc1)c1ccccc1 (stereo not drawn) [FLUOXETINE] | 72
58 | CN(CCC(Oc1ccc(C(F)(F)F)cc1)c1ccccc1)CC(O)COc1ccc(C#N)cc1 (stereo not drawn) | 72
59 | CN(CCC(Oc1ccc(C(F)(F)F)cc1)c1ccccc1)CC(O)COc1ccccc1 (stereo not drawn) | 52
60 | CN(CCC(Oc1ccc(C(F)(F)F)cc1)c1ccccc1)CC(O)COc1cccc(C(F)(F)F)c1 (stereo not drawn) | 32
61 | CN(CCC(Oc1ccc(C(F)(F)F)cc1)c1ccccc1)CC(O)COc1ccc(Br)cc1 (stereo not drawn) | 60
62 | CN(CCC(Oc1ccc(C(F)(F)F)cc1)c1ccccc1)CC(O)COc1ccc(C=O)cc1 (stereo not drawn) | 40

System: Mus musculus
Assay: Effect on CNS in Mus musculus Swiss (mouse) assessed as reversal of resperine-induced ptosis at 75 umol/kg, ip
Format: ADME, organism-based, Central nervous system
Details: in vivo

Row | Structure (SMILES) | Activity
63 | CN(CCC(Oc1ccc(C(F)(F)F)cc1)c1ccccc1)CC(O)COc1ccc2ccccc2c1 (stereo not drawn) | Non-toxic
64 | CCC(=O)c1ccc(OCC(O)CN(C)CCC(Oc2ccc(C(F)(F)F)cc2)c2ccccc2)cc1 (stereo not drawn) | Non-toxic
65 | CN(CCC(Oc1ccc(C(F)(F)F)cc1)c1ccccc1)CC(O)COc1ccc(Cl)cc1 (stereo not drawn) | Non-toxic
66 | COc1ccc(OCC(O)CN(C)CCC(Oc2ccc(C(F)(F)F)cc2)c2ccccc2)cc1 (stereo not drawn) | Non-toxic
67 | COc1ccccc1OCC(O)CN(C)CCC(Oc1ccc(C(F)(F)F)cc1)c1ccccc1 (stereo not drawn) | Non-toxic
68 | CC(=O)c1ccc(OCC(O)CN(C)CCC(Oc2ccc(C(F)(F)F)cc2)c2ccccc2)cc1 (stereo not drawn) | Non-toxic
69 | CC(=O)Nc1ccc(OCC(O)CN(C)CCC(Oc2ccc(C(F)(F)F)cc2)c2ccccc2)cc1 (stereo not drawn) | Non-toxic
70 | CCNc1ccc(OCC(O)CN(C)CCC(Oc2ccc(C(F)(F)F)cc2)c2ccccc2)cc1 (stereo not drawn) | Non-toxic
71 | CN(CCC(Oc1ccc(C(F)(F)F)cc1)c1ccccc1)CC(O)COc1ccc(C(F)(F)F)cc1 (stereo not drawn) | Non-toxic
72 | Cc1ccccc1OCC(O)CN(C)CCC(Oc1ccc(C(F)(F)F)cc1)c1ccccc1 (stereo not drawn) | Non-toxic
73 | CNCCC(Oc1ccc(C(F)(F)F)cc1)c1ccccc1 (stereo not drawn) [FLUOXETINE] | 100%
74 | CN(CCC(Oc1ccc(C(F)(F)F)cc1)c1ccccc1)CC(O)COc1ccc(C#N)cc1 (stereo not drawn) | Non-toxic
75 | CN(CCC(Oc1ccc(C(F)(F)F)cc1)c1ccccc1)CC(O)COc1ccccc1 (stereo not drawn) | Non-toxic
76 | CN(CCC(Oc1ccc(C(F)(F)F)cc1)c1ccccc1)CC(O)COc1cccc(C(F)(F)F)c1 (stereo not drawn) | Non-toxic
77 | CN(CCC(Oc1ccc(C(F)(F)F)cc1)c1ccccc1)CC(O)COc1ccc(Br)cc1 (stereo not drawn) | Non-toxic
78 | CN(CCC(Oc1ccc(C(F)(F)F)cc1)c1ccccc1)CC(O)COc1ccc(C=O)cc1 (stereo not drawn) | Non-toxic
